Assay results: the SangsterLogP compilation

experiment: method code SF-AS, from DOI: 10.1002/qsar.19900090404

SMILES	logP
Clc1cnccn1	0.7
CC(=O)Nc1ccnnc1	-0.41
CCOC(=O)c1cncnc1	0.52
COc1ncccn1	0.23
Cc1cccnn1	-0.35
COC(=O)c1ncccn1	-0.71
Clc1cccnn1	0.1
Fc1cncnc1	-0.03
CCCOc1ccccn1	2.38
CCOc1cncnc1	0.56
NC(=O)c1ccnnc1	-0.96
Nc1ccncn1	-0.25
Fc1ccccn1	0.84
CCOc1cccnn1	0.63
Fc1cnccn1	0.29
CCc1ccccn1	1.6
NC(=O)c1cncnc1	-0.92
CCOc1ncccn1	0.74
CCCOc1cnccn1	1.84

SMILES	logP
CN(C)c1ccncn1	0.58
CCOC(=O)c1ncccn1	-0.31
Cc1ncccn1	-0.05
CC(=O)c1cnccn1	0.2
NC(=O)c1ncccn1	-1.2
COc1ccncn1	0.54
CC(=O)Nc1cnccn1	-0.03
CCOc1ccccn1	1.81
CCOc1ccnnc1	0.2
COc1cccnn1	0.08
CC(=O)Nc1cncnc1	-0.22
CN(C)c1cncnc1	0.46
CN(C)c1ncccn1	1.07
NC(=O)c1cccnn1	-0.73
COc1cnccn1	0.73
NC(=O)c1ccncn1	-0.68
Cc1cncnc1	0.01
N#Cc1cnccn1	-0.01
N#Cc1ccnnc1	-0.63

SMILES	logP
COC(=O)c1ccnnc1	-0.27
COc1cncnc1	0.07
Fc1ncccn1	0.02
CCOc1ccncn1	0.97
COC(=O)c1cccnn1	-0.43
CSc1cnccn1	1.17
CCOC(=O)c1ccnnc1	0.23
Nc1ccnnc1	-0.53
CCOc1cnccn1	1.28
Clc1ncccn1	0.36
COC(=O)c1cncnc1	0.03
Cc1ccnnc1	-0.32
NC(=O)c1cnccn1	-0.5
CCOC(=O)c1cnccn1	0.28
CSc1ncccn1	1.01
COC(=O)c1ccncn1	-0.27
CC(=O)Nc1ccncn1	0.03
N#Cc1ncccn1	-0.31
